Compared with `Cn1cc(Br)cc(Nc2ccn(C3CC3)n2)c1=O`, `CC1CN(S(C)(=O)=O)Cc2nc3c(N)nc4ccccc4c3n21` (stereo not drawn) is higher in melting point: 161 to 163 °C for the first, 258 to 261 °C for the second.

First: COc1ccc2c(Cc3ccc(O)cc3)c(-c3ccccc3)c(=O)oc2c1
Second: Cc1oc(-c2ccccc2)nc1COc1ccc(Cc2nc(CCC(=O)O)c(-c3ccccc3)o2)cc1
The melting point of the first is higher: 235 to 236 °C for the first, 136 to 137 °C for the second.

First: COc1cccc(OC)c1C(=O)NC(=O)Nc1ccc(Sc2ccc(Cl)cc2)nc1
Second: COC(=O)c1ccc2ccc3ccccc3c2c1C(=O)OC
The melting point of the first is higher: 172 to 174 °C for the first, 117 °C for the second.

Compared with `CCOC(=O)CN1C(=O)C(=S2CN(CC)c3ccccc32)SC1=S` (stereo not drawn), `CCOC(=O)Cn1c2cccccc-2c(CC)c1=O` is lower in melting point: 250 to 252 °C for the first, 128 to 131 °C for the second.

Compared with `NC(=O)c1cccc(-c2cccc(O)c2)c1`, `O=Cc1c[nH]c(-c2ccccc2)c1` is lower in melting point: 148 to 151 °C for the first, 136 to 137 °C for the second.

Compared with `CC1(CN2CCN(c3ccc(C(F)(F)F)cc3)CC2)Cn2cc([N+](=O)[O-])nc2O1` (stereo not drawn), `Cc1nc(OCCN2CCOCC2)c([N+](=O)[O-])c(N2CCc3ccccc3CC2)n1` is lower in melting point: 159 to 160 °C for the first, 143 to 145 °C for the second.

Compared with `CCCCS(=O)(=O)N1CCC(c2ccc(O)cc2O)CC1`, `CN(C(=O)c1ccc2nonc2c1)C1CCN(S(C)(=O)=O)CC1` is lower in melting point: 182 to 183 °C for the first, 177 to 179 °C for the second.

Compared with `COc1cccc(C2C(CN(C)C)CC(=O)N2c2ccccc2)c1` (stereo not drawn), `COc1ccc2c(c1)C1(CCCCc3ccccc31)NC2=O` (stereo not drawn) is higher in melting point: 88 to 92 °C for the first, 189 to 190 °C for the second.

First: CC(C)Oc1c(C(=O)O)n(C)c2ccc(OCc3ccccc3)cc12
Second: Clc1nccc(-n2ccc3c(SCc4ccccc4)cccc32)n1
The melting point of the first is lower: 136 °C for the first, 159 to 161 °C for the second.

First: CCC(=O)O[C@@H]1OCC[C@@H]1NC(=O)[C@@H](NS(=O)(=O)c1cccc2ccccc12)[C@@H](C)CC
Second: CCN(CC)C(=O)n1ccc(S(=O)(=O)c2ccccc2OC)n1
The melting point of the first is higher: 157 to 159 °C for the first, 67 to 68 °C for the second.

First: CCC(C)(C)c1nc(C(C)C)[nH]c1C(C)(C)CC
Second: Cc1cccc(-c2[nH]c(C(C)C)nc2-c2cccc(-c3cccc(NS(C)(=O)=O)c3)c2)n1
The melting point of the first is lower: 28 °C for the first, 108 to 112 °C for the second.

First: Cc1cccc2c1nc(-c1cccc3ccccc13)n2Cc1c(F)cccc1F
Second: O=C(NCCO)c1cccc(-c2cccc3nn(Cc4cccc(C(F)(F)F)c4)cc23)c1
The melting point of the first is lower: 121 to 123 °C for the first, 136 to 137 °C for the second.

Compared with `CCN(CC)CC1CCCCN1CCCNC(=O)N1c2ccccc2NC(=O)c2ccccc21` (stereo not drawn), `C=C(C)CN1CCN(CC(=O)N2c3ccccc3C(=O)Nc3cccnc32)CC1` is higher in melting point: 148 to 150 °C for the first, 205 to 207 °C for the second.

First: CCC(=O)C(CCCOc1ccc2c(c1)OCO2)C(=O)CC
Second: CCCN(C=O)n1cc(C(=O)OCC)c(=O)c2cc3c(cc21)OCO3
The melting point of the first is lower: 68 °C for the first, 188 to 192 °C for the second.

Compared with `CC(C)(C)[Si](OCC[C@H](O)CO)(c1ccccc1)c1ccccc1`, `CCOC(=O)NC1Cc2ccccc2C1Sc1ccccc1` (stereo not drawn) is lower in melting point: 70 to 72 °C for the first, 60.5 to 62 °C for the second.

Compared with `Cc1cc(C(=N)N)ccc1N1CCN(c2ccc(CCC(=O)O)cc2)C1=O`, `CSc1ccc(C(=O)c2cc(C)cc(CC(N)=O)c2N)cc1` is lower in melting point: greater than 270 °C for the first, 188 to 190 °C for the second.

Compared with `O=C(Nc1ccc(-n2nc(C(F)(F)F)cc2C(F)(F)F)cc1)Nc1cccc([N+](=O)[O-])c1`, `Cc1ccc(C(=O)Nc2cc(C(F)(F)F)ccn2)cc1/C=C/n1cnc2c(NC3CC3)ncnc21` is higher in melting point: 203 to 204 °C for the first, 232 °C for the second.

First: CC(C)C[C@@H](CC=O)NC(=O)[C@H](Cc1c[nH]cn1)NC(=O)[C@H](Cc1cccc2ccccc12)NC(=O)OCc1ccccc1
Second: Cc1cn(COC(COCc2ccccc2)COCc2ccccc2)c(=O)[nH]c1=O
The melting point of the first is higher: 153 to 156 °C for the first, 96 to 98 °C for the second.

Compared with `CCOC(=O)c1ccc(CCCC2NC(=O)CS2)cc1` (stereo not drawn), `COC(=O)Cc1ccc(C(C)=O)cc1` is lower in melting point: 99 to 100 °C for the first, 44 °C for the second.

Compared with `O=C1NCc2c1cccc2-c1cccc2cc(Cc3cccc(C(F)(F)F)c3)sc12`, `Cc1noc(NS(=O)(=O)c2ccccc2-c2ccc(-c3ncco3)cc2CN(Cc2ccccc2)CC(F)(F)F)c1C` is lower in melting point: 195 to 196 °C for the first, 50 to 60 °C for the second.

First: COc1ccc(C2(CCN3CCC(O)(c4nc5ccccc5n4Cc4ccc(F)cc4)CC3)CCN(C(=O)c3cc(OC)c(OC)c(OC)c3)C2)cc1OC (stereo not drawn)
Second: COc1cc(C)c(C(=O)c2c(OC)ccc3ccccc23)c(OC)c1OC
The melting point of the first is higher: 110 to 120 °C for the first, 72 °C for the second.

First: CNC(=O)CCC1CCN(Cc2cnc3cc(NC(=O)c4ccc(-c5ccc(F)cc5)cc4)c(C)cc3c2)CC1
Second: N#Cc1cc(NC(=O)c2cc3ccccc3o2)ccc1N1CCC(CCO)CC1
The melting point of the first is lower: 207 to 211 °C for the first, 214 °C for the second.

First: CC(=O)Nc1cc2c(cc1[N+](=O)[O-])OC(C)(C)[C@@H](O)[C@@H]2NC(C)=O (relative stereo)
Second: CNC(=S)Nc1ccc2c(c1)C(=O)NC(=O)C2(C)C
The melting point of the first is higher: 244 to 246 °C for the first, 206 to 207 °C for the second.

First: CC(=O)C1C=C(Br)C(=O)CO1 (stereo not drawn)
Second: CSCc1ccccc1S(N)(=O)=O
The melting point of the first is lower: 78 to 80 °C for the first, 119 to 124 °C for the second.

Compared with `CC(O)c1cccc2cccc(O)c12` (stereo not drawn), `COc1ccc(Cl)c2c1[nH]c1c(C(=O)O)cccc12` is higher in melting point: 89 to 90 °C for the first, 328 °C for the second.

First: Cc1c2n(c3ccccc13)C(=O)C(C(O)c1cn(C(c3ccccc3)(c3ccccc3)c3ccccc3)c(C)n1)CC2 (stereo not drawn)
Second: O=C(O)c1ccc(CCc2n[nH]c3c2c(=O)n(-c2ccccc2)c2ncccc32)cc1
The melting point of the first is lower: 135 to 136 °C for the first, 318 to 320 °C for the second.

Compared with `O=[N+]([O-])c1ccc(CNc2ncnc3c2ncn3C2OC(CO)C(O)C2O)cc1` (stereo not drawn), `COc1cccc(CC(=O)O)c1OCCCc1cn(-c2ncc(C#N)cn2)nc1C(C)C` is lower in melting point: 168 to 169 °C for the first, 167 to 168 °C for the second.

Compared with `CCCC(=O)c1cnc2c(F)cccc2c1Nc1ccc(O)cc1C`, `O=c1c2cnc3ccc(F)cc3c2on1-c1ccccc1` is lower in melting point: 205 to 207 °C for the first, 174 °C for the second.

First: CONC(=N)c1nc(Cl)c(-c2c(F)cc(F)cc2F)c(N2CCCO2)n1
Second: CC(=O)OCCSC(F)(F)C(O)(Cn1cncn1)c1ccc(F)cc1F (stereo not drawn)
The melting point of the first is higher: 192 to 193 °C for the first, 79 to 82 °C for the second.

Compared with `O=Cc1ccc(-c2cc(-c3c(-c4ccccn4)nc4ccccn34)ccn2)cc1`, `Cc1cc(-c2ccc(-c3ccccc3)c(-c3ccc4c(c3)C(C)(C)CCC4(C)C)c2)ccc1C(=O)O` is lower in melting point: 216 to 218 °C for the first, 130 to 132 °C for the second.

Compared with `CS(=O)(=O)OCCC1=C(CCOS(C)(=O)=O)c2ccccc2Sc2ccccc21`, `N#Cc1cccc2c1CC(=O)c1ccccc1S2` is higher in melting point: 107 to 108 °C for the first, 165 to 167 °C for the second.

First: O=C1c2cccc(Cl)c2C(O)N1c1ccc2ccc(Cl)nc2n1 (stereo not drawn)
Second: COc1ccc(C(=O)Nc2ccc3ccc(Br)nc3n2)cc1
The melting point of the first is higher: 270 °C for the first, 221 °C for the second.

Compared with `S=C1CSc2ccccc2CN1`, `O=C1c2ccsc2CCN1Cc1ccccc1` is lower in melting point: 215 to 219 °C for the first, 54 °C for the second.

First: CN1CCc2c(c3cc(Cl)ccc3n2CCC#N)C1
Second: COc1ccc2c(n1)c(CCNC(=O)c1ccco1)c1n2CCCC1
The melting point of the first is higher: 127 to 129 °C for the first, 104 to 105 °C for the second.

First: O=CN1CCC(C(=O)O)=Cc2cc(Br)ccc21
Second: NC(=O)c1c(Cl)c(-c2ccccc2)n2c1CN(S(=O)(=O)c1ccncc1)CC2
The melting point of the first is higher: 248 to 250 °C for the first, 202 to 204 °C for the second.

First: N#CC1=C(C2CC2)Nc2n[nH]cc2C1c1ccccc1Cl (stereo not drawn)
Second: CCCC1=C(C(=O)OCC)C(c2ccccc2Cl)c2cn(C(=O)OC(C)(C)C)nc2N1 (stereo not drawn)
The melting point of the first is higher: greater than 250 °C for the first, 144 to 147 °C for the second.

First: CC(C)(C)OC(=O)c1sc(Oc2ccc3c(c2)OCO3)c2c1CCc1cnoc1-2
Second: CC(C)N(C(=O)C(F)(F)F)c1cc2c(cc1C(=O)c1ccccc1)OCO2
The melting point of the first is higher: 165 to 166 °C for the first, 100 to 102 °C for the second.

Compared with `CC(C)(C)c1cc(CCC(N)=O)cc(-n2nc3ccc(S(=O)(=O)c4ccccc4)cc3n2)c1O`, `O=C(NS(=O)(=O)c1ccccc1)c1cccc(C[C@@H]2COc3ccc(OCc4nc5cc(F)ccc5s4)cc3[C@@H]2O)c1` is higher in melting point: 144 to 145 °C for the first, 161 to 162 °C for the second.

First: Cc1ccc(Sc2ccc3c(c2)CC[C@H]2N(C)C(=O)CC[C@]32C)cc1
Second: COc1ccccc1Cc1ccc2[nH]c3cnn(C)c3c(=O)c2c1
The melting point of the first is lower: 154 to 156 °C for the first, 255 °C for the second.

First: Nc1cc(-n2cccc2)ccc1Nc1cccc(-n2ccnc2)c1
Second: Brc1ccc(CCCCn2ccnc2)cc1
The melting point of the first is higher: 207 to 212 °C for the first, 40 °C for the second.

Compared with `CCc1nc(C2CCCC2)n2nc(-c3ccc(OC)c(S(=O)(=O)N4CCOCC4)c3)[nH]c(=O)c12`, `NC(=O)N(c1ccccc1-c1nc(C2CC2)no1)C1CN2CCC1CC2` (stereo not drawn) is higher in melting point: 204 °C for the first, 229 to 233 °C for the second.

First: O=C(O)COC1c2ccccc2COc2ccc(OCc3ccc4cc(Cl)ccc4n3)cc21 (stereo not drawn)
Second: Cc1cc(S(=O)(=O)O)c(NC(=O)Nc2cc3ccccc3[nH]2)cc1Cl
The melting point of the first is lower: 179 to 180 °C for the first, 284 to 286 °C for the second.

Compared with `CC(C)(Sc1cc(C(C)(C)C)c(O)c(C(C)(C)C)c1)Sc1cc(C(C)(C)C)c(OCCO)c(C(C)(C)C)c1`, `Cc1cccc(Cl)c1CNc1c(NC(C)(C)C)c(=O)c1=O` is higher in melting point: 146 to 147 °C for the first, 254 to 257 °C for the second.

`COCNC(=S)n1nc(Oc2ccc(C#N)cc2C(F)(F)F)cc1C` and `FC(F)(F)c1cnc(-n2ccc3ccncc32)c(Cl)c1` cannot be ordered by melting point: 89 to 90 °C for the first, 88 to 90 °C for the second.

First: CC(=O)OC1C(N2CCCC2)CC2C3CCC4CC(O)C(N5CCOCC5)CC4(C)C3CCC21C (stereo not drawn)
Second: O=C(NCCNCC(O)COc1ccc(OCCOCC2CC2)cc1)N1CCOCC1 (stereo not drawn)
The melting point of the first is higher: 149 to 153 °C for the first, 80 to 81 °C for the second.

First: CCOC(=O)N1CC(C)N(C(C)C(O)(Cn2cncn2)c2ccc(F)cc2F)CC1C (stereo not drawn)
Second: CC(C)(C)C(=O)Nc1ccncc1
The melting point of the first is lower: 57 to 59 °C for the first, 137 to 140 °C for the second.

First: O=S(=O)(NC1CCOCC1)c1ccc(Cl)cc1
Second: COC(=O)c1cnc(C(=O)OC)c(Cl)c1
The melting point of the first is higher: 127 to 129 °C for the first, 36 to 38 °C for the second.

First: Cc1ccncc1C(N)=S
Second: Nc1nc(O)c2ccnc-2[nH]1
The melting point of the first is lower: 104 to 106 °C for the first, greater than 300 °C for the second.

Compared with `[N-]=[N+]=NC(C(=O)O)c1ccsc1` (stereo not drawn), `CCCC1=C(Br)c2cc3c(cc2C1)OCO3` is higher in melting point: 58 to 59 °C for the first, 96 to 97 °C for the second.

Source: a melting point compilation (Tetko et al.; mined from patent text by program, amines drawn as free bases though some values may be those of a salt)
